The test system of this assay is Mycobacterium tuberculosis. In words: Antitubercular activity against Mycobacterium tuberculosis H37Rv at 6.25 ug/ml by BACTEC 460 radiometric assay. It counts as functional.

Active and inactive are the calls of the source. No cut-off for these calls is given here.

These results are taken from ChEMBL document CHEMBL1150699, “Characterization of an anti-tuberculosis resin glycoside from the prairie medicinal plant Ipomoea leptophylla” (2003).

Broadly, the inhibition is the drop in the measured response relative to a control, in per cent. In turn, `CCCCCCCCCCCC(=O)O[C@H]1[C@H](O[C@@H]2[C@@H](O)[C@H]3OC(=O)CCCCCCCCC[C@H](CCCCC)O[C@@H]4O[C@H](C)[C@H](O)[C@H](O)[C@H]4O[C@@H]3O[C@H]2C)O[C@@H](C)[C@H](O[C@@H]2O[C@@H](C)[C@H](OC(=O)CC)[C@@H](O)[C@H]2OC(=O)/C=C/c2ccccc2)[C@H]1O[C@@H]1O[C@H](CO)[C@@H](O)[C@H](O)[C@H]1O` returned an inhibition at 6.25 µg/mL of 13%.

Regarding `CCCCC[C@@H](CCCCCCCCCC(=O)O)O[C@@H]1O[C@H](C)[C@H](O)[C@H](O)[C@H]1O[C@@H]1O[C@@H](C)[C@H](O[C@@H]2O[C@@H](C)[C@H](O[C@@H]3O[C@@H](C)[C@H](O)[C@@H](O)[C@H]3O)[C@@H](O)[C@H]2O[C@@H]2O[C@H](CO)[C@@H](O)[C@H](O)[C@H]2O)[C@@H](O)[C@H]1O`, the result was inactive. On to `CCCCCCCCCCCC(=O)O[C@H]1[C@H](O[C@@H]2[C@@H](O)[C@H]3OC(=O)CCCCCCCCC[C@H](CCCCC)O[C@@H]4O[C@H](C)[C@H](O)[C@H](O)[C@H]4O[C@@H]3O[C@H]2C)O[C@@H](C)[C@H](O[C@@H]2O[C@@H](C)[C@H](OC(=O)CC)[C@@H](O)[C@H]2O)[C@H]1O[C@@H]1O[C@H](CO)[C@@H](O)[C@H](O)[C@H]1O`, for which the result was inactive. On the same count and under the same terms, as for `CCCCCCCCCCCC(=O)O[C@H]1[C@H](O[C@@H]2[C@@H](OC)[C@H]3OC(=O)CCCCCCCCC[C@H](CCCCC)O[C@@H]4O[C@H](C)[C@H](OC)[C@H](OC)[C@H]4O[C@@H]3O[C@H]2C)O[C@@H](C)[C@H](O[C@@H]2O[C@@H](C)[C@H](OC(=O)CC)[C@@H](OC)[C@H]2OC(=O)/C=C/c2ccccc2)[C@H]1O[C@@H]1O[C@H](COC)[C@@H](OC)[C@H](OC)[C@H]1OC`, the entry is “inactive”.
